Where two headings read alike, the source gives them in different places.
Test system: Dengue-2 (Strain New Guinea C)
Test: Viral yield assay against Dengue-2 in Vero cells
Format: cell-based, Dengue virus
Details: Dengue virus
Summary of the method: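 Progeny virus from compound-treated Vero monolayers infected at an MOI of 0.1 is collected after 48 h at 37° C and titered on Vero cells. DMSO serves as control.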

[1] = Vero cells, MOI 0.1, harvested 48 hours post infection, read-out: Activity (EC50 class) against Dengue-2 Virus in Vero cells
[2] = DENV2, viral yield assay, Vero cells, MOI 0.1, 48 hours post infection, read-out: Activity (EC50 in μM) DENV-2
[3] = Vero, 48 h, read-out: Activity (EC50 class) against Dengue-2 Virus in Vero cells

Structure (SMILES)	EC50 [1]	also measured
Nc1c(C(=O)N2CCOCC2)sc2nc(-c3ccccc3)cc(C(F)(F)F)c12 [Compound 89, (3-Amino-6-phenyl-4-trifluoromethyl-thieno[2,3-b]pyridin-2-yl)-morpholin-4-yl-methanone]	5 to 25 µM	–
Nc1c(C(=O)Nc2cccc(Br)c2)sc2nc(-c3ccncc3)ccc12 [Compound 481, 3-amino-N-(3-bromophenyl)-6-(4-pyridyl)thieno[2,3-b]pyridine-2-carboxamide]	–	EC50 [2]: 5 to 25 µM
CN(C)c1ccnc2sc(C(=O)NCc3ccccc3)c(N)c12 [Compound 77, 3-Amino-4-dimethylamino-thieno[2,3-b]pyridine-2-carboxylic acid benzylamide]	5 to 25 µM	–
COc1ccc(-c2c(C#N)c(N)nc3sc(C(N)=O)c(N)c23)cc1OC [Compound 170, 3,6-Diamino-5-cyano-4-(3,4-dimethoxy-phenyl)-thieno[2,3-b]pyridine-2-carboxylic acid amide]	–	EC50 [3]: > 25 µM
CCCc1ccc2c(N)c(C(=O)Nc3nc(C(F)(F)F)ccc3Cl)sc2n1 [Compound 73, 3-Amino-6-propyl-thieno[2,3-b]pyridine-2-carboxylic acid (3-chloro-6-trifluoromethyl-pyridin-2-yl)-amide]	5 to 25 µM	–
Cc1ccc2c(n1)sc1c(=O)[nH]c(C)nc12 [Compound 154, 2,7-Dimethyl-3H-pyrido[3′,2′:4,5]thieno[3,2-d]pyrimidin-4-one]	> 25 µM	–
COc1ccc(NC(=O)c2sc3nc4c(c(-c5ccccc5)c3c2N)CN(C)CC4)cc1 [Compound 50, 3-Amino-6-methyl-4-phenyl-5,6,7,8-tetrahydro-thieno[2,3-b][1,6]naphthyridine-2-carboxylic acid (4-methoxy-phenyl)-amide]	< 5 µM	–
Cc1cc(C)c2c(n1)sc1c(=O)[nH]c(C)nc12 [Compound 153, 2,7,9-Trimethyl-3H-pyrido[3′,2′:4,5]thieno[3,2-d]pyrimidin-4-one]	> 25 µM	–
Cc1c(C(=O)Nc2ccc(F)cc2)sc2ncc(C(=O)Nc3ccc(F)cc3)cc12 [Compound 397, N2,N5-bis(4-fluorophenyl)-3-methyl-thieno[2,3-b]pyridine-2,5-dicarboxamide]	–	EC50 [2]: < 5 µM
Cc1ccc(NC(=O)c2sc3nc(C)cc(C(F)(F)F)c3c2N)nc1 [Compound 132, 3-Amino-6-methyl-4-trifluoromethyl-thieno[2,3-b]pyridine-2-carboxylic acid (5-methyl-pyridin-2-yl)-amide]	> 25 µM	–
Cc1ccccc1NC(=O)c1sc2nc3c(c(-c4ccco4)c2c1N)CCCC3 [Compound 218, 3-Amino-4-furan-2-yl-5,6,7,8-tetrahydro-thieno[2,3-b]quinoline-2-carboxylic acid o-tolylamide]	–	EC50 [3]: > 25 µM
Cc1cc(C)c2c(N)c(C(=O)NCc3ccco3)sc2n1 [Compound 258, 3-Amino-4,6-dimethyl-thieno[2,3-b]pyridine-2-carboxylic acid (furan-2-ylmethyl)-amide]	–	EC50 [3]: > 25 µM
CCc1c(C)nc2sc(C(N)=O)c(N)c2c1C [Compound 160, 3-Amino-5-ethyl-4,6-dimethyl-thieno[2,3-b]pyridine-2-carboxylic acid amide]	> 25 µM	–
CN1CCc2nc3sc(C(=O)Nc4ccc(F)cc4F)c(N)c3cc2C1 [Compound 111, 3-Amino-6-methyl-5,6,7,8-tetrahydro-thieno[2,3-b][1,6]naphthyridine-2-carboxylic acid (2,4-difluoro-phenyl)-amide]	5 to 25 µM	–
Nc1c(C(=O)Nc2ccc([N+](=O)[O-])cc2)sc2nc3c(cc12)CCC3 [Compound 215, 3-Amino-6,7-dihydro-5H-cyclopenta[b]thieno[3,2-e]pyridine-2-carboxylic acid (4-nitro-phenyl)-amide]	> 25 µM	–
COCc1cc(C)nc2sc(C(=O)Nc3ccc(Br)c(Cl)c3)c(N)c12 [Compound 197, 3-Amino-4-methoxymethyl-6-methyl-thieno[2,3-b]pyridine-2-carboxylic acid (4-bromo-3-chloro-phenyl)-amide]	–	EC50 [3]: > 25 µM
